One may read the IC50 as the concentration that inhibits the measured activity by half.

The target in the experiment is T1, androgen receptor (AR) (Homo sapiens, UniProt P10275, T878A).
T1 construct: LNCaP cells expressing ARR2PB-FireflyLuc and CMV-RenillaLuc; endogenous in cells; host or cells: LNCaP cells carrying ARR2PB-FireflyLuc and CMV-RenillaLuc reporters
T1 sequence (P10275 1-920 T878A): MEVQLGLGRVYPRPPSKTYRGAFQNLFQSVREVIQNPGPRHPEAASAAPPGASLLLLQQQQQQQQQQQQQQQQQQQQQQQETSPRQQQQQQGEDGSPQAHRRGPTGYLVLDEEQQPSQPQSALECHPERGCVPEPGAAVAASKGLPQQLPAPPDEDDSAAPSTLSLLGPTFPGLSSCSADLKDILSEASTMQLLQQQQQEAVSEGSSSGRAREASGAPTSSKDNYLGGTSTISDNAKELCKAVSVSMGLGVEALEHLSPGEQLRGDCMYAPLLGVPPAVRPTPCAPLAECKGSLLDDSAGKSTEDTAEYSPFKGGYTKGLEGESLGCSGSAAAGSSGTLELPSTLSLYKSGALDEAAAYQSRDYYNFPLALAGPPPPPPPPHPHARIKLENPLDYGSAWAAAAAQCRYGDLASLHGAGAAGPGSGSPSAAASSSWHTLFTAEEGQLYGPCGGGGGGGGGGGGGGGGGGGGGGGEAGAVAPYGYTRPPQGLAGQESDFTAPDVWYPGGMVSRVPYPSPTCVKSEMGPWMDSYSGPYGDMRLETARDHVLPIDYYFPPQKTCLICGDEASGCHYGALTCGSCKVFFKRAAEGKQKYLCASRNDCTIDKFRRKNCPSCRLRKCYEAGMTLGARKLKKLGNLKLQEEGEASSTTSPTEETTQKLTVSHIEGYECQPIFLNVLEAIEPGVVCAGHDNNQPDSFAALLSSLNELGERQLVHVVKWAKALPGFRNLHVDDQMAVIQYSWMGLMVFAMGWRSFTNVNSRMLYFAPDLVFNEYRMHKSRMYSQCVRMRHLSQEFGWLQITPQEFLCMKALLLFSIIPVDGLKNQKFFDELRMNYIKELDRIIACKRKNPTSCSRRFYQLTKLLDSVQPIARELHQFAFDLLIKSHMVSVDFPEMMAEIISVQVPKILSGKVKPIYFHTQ
The experiment is described as follows: AR reporter assay in LNCaP cells expressing ARR2PB-FireflyLuc and CMV-RenillaLuc, antagonist mode (% remaining activity, IC50). The conditions noted are these: 48 h at 37° C., class symbols A-D, read-out: IC50. In kind it is cell-based. The method in brief:
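LNCaP cells carrying ARR2PB-firefly and CMV-Renilla luciferase reporters were treated 48 h at 37 °C with compound plus 0.5 nM DHT. Signals were normalised between 0.5 nM DHT alone and 10 uM enzalutamide + DHT to give % remaining activity, and IC50 was obtained by non-linear regression.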
For the compound `CC1(C)NC(=O)c2cnc(-c3c[nH]c4c(C#N)cccc34)cc21` [Compound 270], the IC50 was greater than 10000 nM.

Consider `CC1(C)NC(=O)c2ncc(-c3c[nH]c4c(C#N)cccc34)cc21` [Compound 271], for which the IC50 is greater than 10000 nM.

With `CC(=O)N1C[C@@H](F)[C@H](Oc2ncc(-c3c[nH]c4c(C#N)cccc34)nc2C)C1` [Compound 272], the IC50 was in the range of 100 to 1000 nM. The result for `Cc1nc(-c2c[nH]c3c(Cl)cccc23)cnc1O[C@@H]1CNC[C@H]1F` [Compound 273] reads 100 to 1000 nM; that for `Cc1nc(-c2c[nH]c3c(C#N)cccc23)cnc1OC1CC(N)C1` (stereo not drawn) [Compound 274], 100 to 1000 nM; that for `Cc1nc(-c2c[nH]c3c(C#N)cccc23)cnc1OC1CCC(N)C1` (stereo not drawn) [Compound 275], greater than 10000 nM. Turning to `CC(=O)N1CCC(Oc2ncc(-c3n[nH]c4c(Cl)cccc34)nc2C)C1` (stereo not drawn) [Compound 276], the IC50 was 100 to 1000 nM. The figure for `Cc1nc(-c2n[nH]c3c(Cl)cccc23)cnc1OC1CCNC1` (stereo not drawn) [Compound 277] is 100 to 1000 nM.

Regarding `COc1nc(-c2c[nH]c3c(C#N)cccc23)cnc1OC1CCN(C(C)=O)C1` (stereo not drawn) [Compound 278], the IC50 lay within 1000 to 10000 nM.

Regarding `Cc1nc(-c2c[nH]c3c(C#N)cccc23)cnc1NCC(C)(C)O` [Compound 279], the IC50 is 100 to 1000 nM. The figure for `COc1nc(-c2c[nH]c3c(C#N)cccc23)cnc1NCC(C)(C)O` [Compound 280] is 100 to 1000 nM. For `Cc1nc(-c2c[nH]c3c(C#N)cccc23)cnc1SC1CCNC1` (stereo not drawn) [Compound 281], the IC50 was in the range of 1000 to 10000 nM. With `N#Cc1cccc2c(-c3cnc(OC4CCNC4)c(C4CC4)n3)c[nH]c12` (stereo not drawn) [Compound 282], the IC50 fell in the range of 1000 to 10000 nM. The result for `Cc1nc(-c2c[nH]c3c(C#N)cccc23)cnc1OC1CCNC1(C)C` (stereo not drawn) [Compound 283] reads greater than 10000 nM. The figure for `Cc1nc(-c2c[nH]c3c(C#N)cccc23)cnc1OC1CNC(C)(C)C1` (stereo not drawn) [Compound 284] is greater than 10000 nM. The result for `Cc1nc(-c2c[nH]c3c(C#N)cccc23)cnc1O[C@H]1CCN[C@@H]1C` [Compound 285] reads 1000 to 10000 nM; that for `Cc1nc(-c2c[nH]c3c(C#N)cccc23)cnc1OCC(C)(C)N` [Compound 286], 1000 to 10000 nM. Regarding `Cc1nc(-c2c[nH]c3c(C#N)cccc23)cnc1OC(C)CN` (stereo not drawn) [Compound 287], the concentration for half-maximal inhibition (IC50) fell in the range of 100 to 1000 nM. The figure for `COc1nc(-c2c[nH]c3c(C#N)cccc23)cnc1N[C@H]1CCN(C(C)=O)C1` [Compound 288] is less than 100 nM. The result for `COc1nc(-c2c[nH]c3c(C#N)cccc23)cnc1N[C@@H]1CCN(C(C)=O)C1` [Compound 289] reads less than 100 nM; that for `CC(=O)N1CCC(Oc2cnc(-c3c[nH]c4c(C#N)cccc34)cn2)C1` (stereo not drawn) [Compound 290], 1000 to 10000 nM; that for `CC(=O)N1CCC(Oc2ncc(-c3c[nH]c4c(F)cccc34)nc2C)C1` (stereo not drawn) [Compound 291], 100 to 1000 nM. The figure for `CC(=O)N1CCC(Oc2ncc(-c3c[nH]c4ncccc34)nc2C)C1` (stereo not drawn) [Compound 292] is greater than 10000 nM. `COc1nc(-c2c[nH]c3ncccc23)cnc1NC1CCN(C(C)=O)C1` (stereo not drawn) [Compound 293]: the IC50 was greater than 10000 nM. Take `COc1nc(-c2c[nH]c3c(C#N)cccc23)cnc1N(C)C1CCN(C(C)=O)C1` (stereo not drawn) [Compound 294]: the IC50 fell in the range of 100 to 1000 nM. The figure for `CC1(C)NC(=O)c2ccc(-c3c[nH]c4c(F)cccc34)nc21` [Compound 295] is 100 to 1000 nM; for `Cc1nc(-c2c[nH]c3c(Cl)cccc23)cnc1OC1CCNC1` (stereo not drawn) [Compound 296] it is less than 100 nM.

Turning to `Cc1nc(-c2c[nH]c3c(C#N)cccc23)cnc1O[C@@H]1CNC[C@@H]1F` [Compound 297], the IC50 lay in the range of 100 to 1000 nM. On to `Cc1nc(-c2c[nH]c3c(=O)n(C)ccc23)ccc1OC1CCNC1` (stereo not drawn) [Compound 300], for which the IC50 was greater than 10000 nM. The figure for `Cc1nc(-c2c[nH]c3c(C#N)cccc23)cnc1OCC(C)(C)O` [Compound 301] is less than 100 nM. The figure for `Cc1nc(-c2c[nH]c3c(C#N)cccc23)cnc1OC(C)CN` (stereo not drawn) [Compound 303] is 100 to 1000 nM; for `CCc1nc(-c2c[nH]c3c(C#N)cccc23)cnc1OC1CCNC1` (stereo not drawn) [Compound 305] it is greater than 10000 nM. With `COc1nc(-c2c[nH]c3c(C#N)cccc23)cnc1OC1CCN(C(C)=O)C1` (stereo not drawn) [Compound 306], the IC50 lay in the range of 1000 to 10000 nM.

Take `CSc1nc(-c2c[nH]c3c(C#N)cccc23)cnc1OC1CCNC1` (stereo not drawn) [Compound 307]: the IC50 was greater than 10000 nM. The result for `Cc1nc(-c2c[nH]c3c(C#N)cccc23)cnc1OC1(C)CCNC1` (stereo not drawn) [Compound 308] reads 1000 to 10000 nM; that for `Cc1nc(-c2coc3cc(F)ccc23)cnc1N` [Compound 309], 100 to 1000 nM; that for `Cc1nc(-c2coc3c(C#N)cccc23)cnc1N` [Compound 310], greater than 10000 nM. With `CC(=O)N1CCC(Oc2ncc(-c3c[nH]c4cccnc34)nc2C)C1` (stereo not drawn) [Compound 311], the IC50 is greater than 10000 nM. The result for `CC(=O)N1CCC(Oc2ncc(-c3n[nH]c4c(C#N)cccc34)nc2C)C1` (stereo not drawn) [Compound 312] reads 1000 to 10000 nM. With `CC(=O)N1CCC(Oc2ncc(-c3c[nH]c4c(C)cccc34)nc2C)C1` (stereo not drawn) [Compound 313], the IC50 lay within 1000 to 10000 nM. With `Cc1cccc2c(-c3ccc4c(n3)C(C)(C)NC4=O)c[nH]c12` [Compound 314], the IC50 was in the range of 100 to 1000 nM. The result for `CC1(C)NC(=O)c2ccc(-c3c[nH]c4ncccc34)nc21` [Compound 315] reads 100 to 1000 nM; that for `COc1nc(-c2c[nH]c3c(C#N)cccc23)ccc1C(N)=O` [Compound 316], greater than 10000 nM; that for `COCCN1CCC(Oc2ncc(-c3c[nH]c4c(C#N)cccc34)nc2C)C1` (stereo not drawn) [Compound 317], 1000 to 10000 nM. The figure for `COCC(=O)N1CCC(Oc2ncc(-c3c[nH]c4c(C#N)cccc34)nc2C)C1` (stereo not drawn) [Compound 318] is 100 to 1000 nM; for `Cc1nc(-c2c[nH]c3c(C#N)cccc23)cnc1OC1CNCC1(F)F` (stereo not drawn) [Compound 322] it is 1000 to 10000 nM. The result for `CC(=O)N1CC(Oc2ncc(-c3c[nH]c4c(C#N)cccc34)nc2C)C(F)(F)C1` (stereo not drawn) [Compound 323] reads 100 to 1000 nM; that for `Cc1nc(-c2c[nH]c3c(C#N)cccc23)ccc1OCC(C)(C)O` [Compound 324], 1000 to 10000 nM. As to `Cc1nc(-c2c[nH]c3c(C#N)cccc23)cnc1OCC1(C)COC1` [Compound 325], the IC50 is 100 to 1000 nM. The result for `Cc1nc(-c2c[nH]c3c(C#N)cccc23)cnc1N(C)CC(C)(C)O` [Compound 326] reads 1000 to 10000 nM; that for `CCN(CC(C)(C)O)c1ncc(-c2c[nH]c3c(C#N)cccc23)nc1C` [Compound 327], 1000 to 10000 nM. With `Cc1nc(-c2c[nH]c3c(C#N)cccc23)cnc1O[C@H]1CN[C@@H](C)C1` [Compound 328], the half-maximal inhibitory concentration (IC50) was greater than 10000 nM. The result for `Cc1nc(-c2c[nH]c3c(C#N)cccc23)cnc1O[C@H]1CN[C@H](C)C1` [Compound 329] reads greater than 10000 nM; that for `Cc1nc(-c2c[nH]c3c(C#N)cccc23)cnc1O[C@@H]1CN[C@@H](C)C1` [Compound 330], greater than 10000 nM. As to `Cc1nc(-c2c[nH]c3c(C#N)cccc23)cnc1O[C@@H]1CN[C@H](C)C1` [Compound 331], the IC50 is greater than 10000 nM.

With `Cc1nc(-c2c[nH]c3c(F)cccc23)cnc1OCC(C)(C)O` [Compound 332], the IC50 fell in the range of 1000 to 10000 nM.

For `Cc1nc(-c2c[nH]c3c(C#N)cccc23)cnc1OCC1(O)CC1` [Compound 333], the half-maximal inhibitory concentration (IC50) was greater than 10000 nM. The result for `Cc1nc(-c2c[nH]c3c(C#N)cccc23)cnc1O[C@@H](C)[C@H](C)O` [Compound 334] reads 1000 to 10000 nM; that for `Cc1nc(-c2c[nH]c3c(C#N)cccc23)cnc1O` [Compound 335], 1000 to 10000 nM. The figure for `Cc1nc(-c2csc3cc(F)ccc23)cnc1OCC(C)(C)O` [Compound 336] is 100 to 1000 nM; for `Cc1nc(-c2coc3c(Cl)cccc23)cnc1OCC(C)(C)O` [Compound 337] it is 100 to 1000 nM; for `Cc1nc(-c2coc3ccccc23)cnc1OCC(C)(C)O` [Compound 338] it is greater than 10000 nM. `Cc1nc(-c2c[nH]c3c(C#N)cccc23)cnc1OCCO` [Compound 340]: the IC50 was greater than 10000 nM.

For `Cc1nc(-c2c[nH]c3c(C#N)cccc23)cnc1OCC(C)O` (stereo not drawn) [Compound 341], the IC50 fell in the range of 1000 to 10000 nM.

On to `CC(C)(O)COc1ncc(-c2c[nH]c3c(C#N)cccc23)nc1C1CC1` [Compound 342], for which the IC50 was greater than 10000 nM. The figure for `Cc1nc(-c2c[nH]c3c(Cl)nccc23)cnc1OCC(C)(C)O` [Compound 343] is greater than 10000 nM.

Values taken from patent publication US12448368B2, “Indole compounds as androgen receptor modulators” (NIDO BIOSCIENCES, INC., priority 2020, dated 2025).
